Test results as given in BindingDB's records for PubMed 2338642 (Marion Merrell Dow, 1990).
Several values for one entry are separate records, joined by “and”; a condition that tells them apart may be missing. Equal entries are not always repeated.

Target: Voltage-dependent L-type calcium channel subunit alpha-1C (Rattus norvegicus, UniProt P22002)
Sequence (P22002 whole entry): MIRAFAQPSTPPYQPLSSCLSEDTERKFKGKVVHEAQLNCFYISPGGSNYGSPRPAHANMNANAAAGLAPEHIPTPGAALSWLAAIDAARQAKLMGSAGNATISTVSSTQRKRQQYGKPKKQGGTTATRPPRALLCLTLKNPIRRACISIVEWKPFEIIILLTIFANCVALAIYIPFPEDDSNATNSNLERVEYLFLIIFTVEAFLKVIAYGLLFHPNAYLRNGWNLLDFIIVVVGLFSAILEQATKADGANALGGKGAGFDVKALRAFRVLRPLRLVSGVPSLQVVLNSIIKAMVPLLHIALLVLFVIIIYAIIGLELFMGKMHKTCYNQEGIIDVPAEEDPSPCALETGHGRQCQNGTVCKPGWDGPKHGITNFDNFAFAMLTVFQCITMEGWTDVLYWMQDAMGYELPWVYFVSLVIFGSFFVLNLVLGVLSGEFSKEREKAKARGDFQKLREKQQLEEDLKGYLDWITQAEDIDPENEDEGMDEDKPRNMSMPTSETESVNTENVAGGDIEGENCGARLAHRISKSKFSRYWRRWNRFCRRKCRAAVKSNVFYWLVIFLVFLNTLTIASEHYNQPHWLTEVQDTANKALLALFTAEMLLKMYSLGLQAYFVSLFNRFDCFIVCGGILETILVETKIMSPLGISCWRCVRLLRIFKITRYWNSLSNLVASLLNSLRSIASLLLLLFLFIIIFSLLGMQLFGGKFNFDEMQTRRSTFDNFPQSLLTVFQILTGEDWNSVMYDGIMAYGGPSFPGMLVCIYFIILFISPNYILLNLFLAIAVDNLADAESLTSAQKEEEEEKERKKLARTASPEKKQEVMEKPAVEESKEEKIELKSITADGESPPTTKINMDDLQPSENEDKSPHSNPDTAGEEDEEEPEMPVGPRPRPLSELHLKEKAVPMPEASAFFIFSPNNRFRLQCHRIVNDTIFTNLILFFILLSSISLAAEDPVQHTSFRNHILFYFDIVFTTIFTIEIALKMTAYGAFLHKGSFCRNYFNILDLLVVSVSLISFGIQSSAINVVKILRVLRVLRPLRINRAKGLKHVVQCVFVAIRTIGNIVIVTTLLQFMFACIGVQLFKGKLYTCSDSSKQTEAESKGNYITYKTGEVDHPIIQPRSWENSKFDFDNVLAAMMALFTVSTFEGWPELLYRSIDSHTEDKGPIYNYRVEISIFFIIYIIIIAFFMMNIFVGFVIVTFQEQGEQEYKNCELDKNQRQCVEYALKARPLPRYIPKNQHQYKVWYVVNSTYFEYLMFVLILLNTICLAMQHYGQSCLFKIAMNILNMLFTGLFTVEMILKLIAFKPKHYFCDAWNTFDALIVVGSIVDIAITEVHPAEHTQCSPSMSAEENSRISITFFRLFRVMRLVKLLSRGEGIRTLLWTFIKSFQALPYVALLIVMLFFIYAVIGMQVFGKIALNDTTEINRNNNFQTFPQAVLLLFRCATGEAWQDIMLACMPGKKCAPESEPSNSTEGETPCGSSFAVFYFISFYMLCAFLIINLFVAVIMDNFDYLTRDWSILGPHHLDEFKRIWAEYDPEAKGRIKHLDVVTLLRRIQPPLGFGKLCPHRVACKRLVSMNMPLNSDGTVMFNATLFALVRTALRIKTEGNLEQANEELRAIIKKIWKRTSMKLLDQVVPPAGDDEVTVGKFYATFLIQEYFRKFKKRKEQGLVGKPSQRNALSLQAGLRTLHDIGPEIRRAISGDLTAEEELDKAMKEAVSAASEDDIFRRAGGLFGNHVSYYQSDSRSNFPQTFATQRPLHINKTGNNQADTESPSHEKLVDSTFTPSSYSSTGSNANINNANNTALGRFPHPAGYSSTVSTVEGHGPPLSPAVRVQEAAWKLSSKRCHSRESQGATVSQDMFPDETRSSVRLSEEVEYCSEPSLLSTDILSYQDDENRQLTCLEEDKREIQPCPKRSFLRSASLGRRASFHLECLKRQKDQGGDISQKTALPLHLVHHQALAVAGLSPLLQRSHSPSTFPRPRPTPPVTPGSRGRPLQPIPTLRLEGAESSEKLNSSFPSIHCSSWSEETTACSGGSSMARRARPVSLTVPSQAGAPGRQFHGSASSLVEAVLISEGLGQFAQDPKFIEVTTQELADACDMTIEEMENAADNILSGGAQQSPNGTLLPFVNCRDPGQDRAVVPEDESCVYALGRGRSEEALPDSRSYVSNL

Work on `COc1ccc([C@@H]2Sc3cc(Cl)ccc3N(CCN(C)C)C(=O)[C@@H]2OC(C)=O)cc1` [CAS_96128-92-6] yielded a Ki of over 10 µM.

In the case of `COc1cc2nc(N3CCN(C(=O)c4ccco4)CC3)nc(N)c2cc1OC` [[3H]-Minipress], the Ki is reported as 6 µM and > 10 µM.

`COc1ccc([C@H]2Sc3cc(Cl)ccc3N(CCN(C)C)C(=O)[C@H]2OC(C)=O)cc1` [l-TA-3090] showed a Ki of over 10 µM.
